Measured values taken from PubChem BioAssay AID1259407 (Chemical Carcinogenesis Research Information System (CCRIS), 2018).
Calls of active or inactive are those of the source. No rule for the calls is given here.

System: CCRIS mutagenicity, Ames/micronucleus/aberration tests
Assay: CCRIS mutagenicity studies
[1] = Test System: AMES SALMONELLA TYPHIMURIUM, Strain/Indicator: TA98, Metabolic Activation: NONE, Method: PREINCUBATION
[2] = Test System: AMES SALMONELLA TYPHIMURIUM, Strain/Indicator: TA100, Metabolic Activation: HAMSTER, LIVER, S-9, AROCLOR 1254 (30%), Method: PREINCUBATION
[3] = Test System: AMES SALMONELLA TYPHIMURIUM, Strain/Indicator: TA100, Metabolic Activation: NONE, Method: PREINCUBATION
[4] = Test System: AMES SALMONELLA TYPHIMURIUM, Strain/Indicator: TA100, Metabolic Activation: RAT, LIVER, S-9, AROCLOR 1254 (30%), Method: PREINCUBATION
[5] = Test System: AMES SALMONELLA TYPHIMURIUM, Strain/Indicator: TA1535, Metabolic Activation: NONE, Method: PREINCUBATION
[6] = Test System: AMES SALMONELLA TYPHIMURIUM, Strain/Indicator: TA98, Metabolic Activation: NONE, Method: STANDARD PLATE
[7] = Test System: AMES SALMONELLA TYPHIMURIUM, Strain/Indicator: TA100, Metabolic Activation: NONE, Method: STANDARD PLATE

Measured: mutagenic call

CCOc1ccccc1N
inactive: Test System: AMES SALMONELLA TYPHIMURIUM, Strain/Indicator: TA97, Metabolic Activation: HAMSTER, LIVER, S-9, AROCLOR 1254 (10 OR 30%), Method: PREINCUBATION inactive; negative | Test System: AMES SALMONELLA TYPHIMURIUM, Strain/Indicator: TA97, Metabolic Activation: NONE, Method: PREINCUBATION inactive; negative | Test System: AMES SALMONELLA TYPHIMURIUM, Strain/Indicator: TA97, Metabolic Activation: RAT, LIVER, S-9, AROCLOR 1254 (10 OR 30%), Method: PREINCUBATION inactive; negative | Test System: AMES SALMONELLA TYPHIMURIUM, Strain/Indicator: TA98, Metabolic Activation: HAMSTER, LIVER, S-9, AROCLOR 1254 (10 OR 30%), Method: PREINCUBATION inactive; negative | [1] inactive; negative | Test System: AMES SALMONELLA TYPHIMURIUM, Strain/Indicator: TA98, Metabolic Activation: RAT, LIVER, S-9, AROCLOR 1254 (10 OR 30%), Method: PREINCUBATION inactive; negative | Test System: AMES SALMONELLA TYPHIMURIUM, Strain/Indicator: TA100, Metabolic Activation: HAMSTER, LIVER, S-9, AROCLOR 1254 (10%), Method: PREINCUBATION inactive; negative | [2] inactive; negative | [3] inactive; negative | Test System: AMES SALMONELLA TYPHIMURIUM, Strain/Indicator: TA100, Metabolic Activation: RAT, LIVER, S-9, AROCLOR 1254 (10%), Method: PREINCUBATION inactive; negative | [4] inactive; negative | Test System: AMES SALMONELLA TYPHIMURIUM, Strain/Indicator: TA1535, Metabolic Activation: HAMSTER, LIVER, S-9, AROCLOR 1254 (10 OR 30%), Method: PREINCUBATION inactive; negative | [5] inactive; negative | Test System: AMES SALMONELLA TYPHIMURIUM, Strain/Indicator: TA1535, Metabolic Activation: RAT, LIVER, S-9, AROCLOR 1254 (10 OR 30%), Method: PREINCUBATION inactive; negative

O=S(=O)(O)OCc1cc2ccccc2c2ccc3ccccc3c12
active: [1] active; positive

CC(C)(C)OCC1CO1 (centres undefined)
active: [2] active; positive | [3] active; positive | [4] active; positive | Test System: AMES SALMONELLA TYPHIMURIUM, Strain/Indicator: TA1535, Metabolic Activation: HAMSTER, LIVER, S-9, AROCLOR 1254 (30%), Method: PREINCUBATION active; positive | [5] active; positive | Test System: AMES SALMONELLA TYPHIMURIUM, Strain/Indicator: TA1535, Metabolic Activation: RAT, LIVER, S-9, AROCLOR 1254 (30%), Method: PREINCUBATION active; positive

Cc1nc2ccc(N)cc2nc1C
active: [1] active; positive | Test System: AMES SALMONELLA TYPHIMURIUM, Strain/Indicator: TA98, Metabolic Activation: RAT, LIVER, S-9, PCB, Method: PREINCUBATION active; positive | Test System: AMES SALMONELLA TYPHIMURIUM, Strain/Indicator: TA100, Metabolic Activation: RAT, LIVER, S-9, PCB, Method: PREINCUBATION active; positive
inactive: [3] inactive; negative

Cc1cc2c(C)c3ccccc3c(C)c2cc1C
inactive: [7] inactive; negative
active: [6] active; positive | Test System: AMES SALMONELLA TYPHIMURIUM, Strain/Indicator: TA98, Metabolic Activation: RAT, LIVER, S-9, AROCLOR 1254, Method: STANDARD PLATE active; positive | Test System: AMES SALMONELLA TYPHIMURIUM, Strain/Indicator: TA100, Metabolic Activation: RAT, LIVER, S-9, AROCLOR 1254, Method: STANDARD PLATE active; positive

O=C/C=C/C=C/CO
active: Test System: CHINESE HAMSTER V-79, Strain/Indicator: V-79 (HGPRT)/8-AZAGUANINE, Metabolic Activation: NONE active; positive

C[Si](C)(C)N[Si](C)(C)C
inactive: Test System: AMES SALMONELLA TYPHIMURIUM, Strain/Indicator: TA98, Metabolic Activation: HAMSTER, LIVER, S-9, AROCLOR 1254 (10%), Method: STANDARD PLATE inactive; negative | [6] inactive; negative | Test System: AMES SALMONELLA TYPHIMURIUM, Strain/Indicator: TA98, Metabolic Activation: RAT, LIVER, S-9, AROCLOR 1254 (10%), Method: STANDARD PLATE inactive; negative | Test System: AMES SALMONELLA TYPHIMURIUM, Strain/Indicator: TA100, Metabolic Activation: HAMSTER, LIVER, S-9, AROCLOR 1254 (10%), Method: STANDARD PLATE inactive; negative | [7] inactive; negative | Test System: AMES SALMONELLA TYPHIMURIUM, Strain/Indicator: TA100, Metabolic Activation: RAT, LIVER, S-9, AROCLOR 1254 (10%), Method: STANDARD PLATE inactive; negative | Test System: AMES SALMONELLA TYPHIMURIUM, Strain/Indicator: TA1535, Metabolic Activation: HAMSTER, LIVER, S-9, AROCLOR 1254 (10%), Method: STANDARD PLATE inactive; negative | Test System: AMES SALMONELLA TYPHIMURIUM, Strain/Indicator: TA1535, Metabolic Activation: NONE, Method: STANDARD PLATE inactive; negative | Test System: AMES SALMONELLA TYPHIMURIUM, Strain/Indicator: TA1535, Metabolic Activation: RAT, LIVER, S-9, AROCLOR 1254 (10%), Method: STANDARD PLATE inactive; negative | Test System: AMES SALMONELLA TYPHIMURIUM, Strain/Indicator: TA1537, Metabolic Activation: HAMSTER, LIVER, S-9, AROCLOR 1254 (10%), Method: STANDARD PLATE inactive; negative | Test System: AMES SALMONELLA TYPHIMURIUM, Strain/Indicator: TA1537, Metabolic Activation: NONE, Method: STANDARD PLATE inactive; negative | Test System: AMES SALMONELLA TYPHIMURIUM, Strain/Indicator: TA1537, Metabolic Activation: RAT, LIVER, S-9, AROCLOR 1254 (10%), Method: STANDARD PLATE inactive; negative | Test System: AMES SALMONELLA TYPHIMURIUM, Strain/Indicator: TA1538, Metabolic Activation: HAMSTER, LIVER, S-9, AROCLOR 1254 (10%), Method: STANDARD PLATE inactive; negative | Test System: AMES SALMONELLA TYPHIMURIUM, Strain/Indicator: TA1538, Metabolic Activation: NONE, Method: STANDARD PLATE inactive; negative | Test System: AMES SALMONELLA TYPHIMURIUM, Strain/Indicator: TA1538, Metabolic Activation: RAT, LIVER, S-9, AROCLOR 1254 (10%), Method: STANDARD PLATE inactive; negative | Test System: MOUSE LYMPHOMA, Strain/Indicator: L5178Y (TK+/TK-), Metabolic Activation: NONE, Method: SUSPENSION/PLATE inactive; negative. reevaluation of results: inconclusive

O=C1OCC(C(Br)Br)=C1Cl
active: [7] active; positive

Cc1ccc(Nc2ccc([N+](=O)[O-])cc2)cc1
active: [1] active; positive | Test System: AMES SALMONELLA TYPHIMURIUM, Strain/Indicator: TA98, Metabolic Activation: RAT, LIVER, S-9, AROCLOR 1254, Method: PREINCUBATION active; positive
inactive: Test System: AMES SALMONELLA TYPHIMURIUM, Strain/Indicator: TA98(NR), Metabolic Activation: NONE, Method: PREINCUBATION inactive; negative

O=C(O)[C@H]1OC(Oc2c3ccccc3c3ccc4cccc5ccc2c3c54)[C@H](O)[C@@H](O)[C@@H]1O (some centres undefined)
inactive: [1] inactive; negative | Test System: AMES SALMONELLA TYPHIMURIUM, Strain/Indicator: TA98, Metabolic Activation: RAT, LUNG, S-9, Method: PREINCUBATION inactive; negative

O=c1ccc2ccc3occc3c2o1
inactive: [6] inactive; negative | Test System: AMES SALMONELLA TYPHIMURIUM, Strain/Indicator: TA98, Metabolic Activation: RAT, LIVER, S-9, PHENOBARBITAL, Method: STANDARD PLATE inactive; negative
